Columns and labels:
[1] = system: kale 'Red Russian'; assay: Content analysis of kale: protein, amino acids, fiber, fatty acids, minerals (Example 4, Tables 12-14); type: in vivo; settings: 28 DA-A, second-listed rate g ai/ha: chlropyrifos ###, chlorothalonil ###, paclobutrazol 9.7, mepiquat-chloride 37, + NIS 0.3 % v/v
Method: Greenhouse and laboratory studies were conducted to ascertain the tolerance and nutritional quality differences following postemergence applications of the insecticide chlorpyrifos, the fungicide chlorothalonil, the PGRs mepiquat-chloride and paclobutrazol, and the safeners napthalic anhydride and isoxadifen-ethyl on kale ‘Red Russian’ and basil ‘Genovese’. Visual injury was rated based on general phytotoxicity, chlorosis, and visual stunting and each measurement was based on a percent scale from 0 to 100 where 0 equals no visual response and 100 equals complete plant death. Kale and basil were both harvested approximately 4 weeks after treatments and plants were pooled over replicates for content analysis of crude protein, crude amino acid content, acid detergent fiber, neutral detergent fiber, total fatty acids, and/or key mineral content (including Na, Ca, P, Mg, K, Fe, Mn, Zn, and Cu). In addition, the amounts of key individual amino acids (aspartic acid, threonine, glutamic acid, proline, glycine, cysteine, valine, leucine, isoleucine, methionine, and lysine) and composite classifications of fatty acid (saturated fatty acids, monounsaturated fatty acids, polyunsaturated fatty acids) were also analyzed from these sub-samples for kale (Tables 10-14).

[2] = system: basil 'Genovese'; assay: Visual injury of basil after insecticide, fungicide, PGRs, safeners (Example 4)
How it was run: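 Plants were harvested about 4 weeks post-treatment and pooled across replicates to analyse protein, amino acids, fiber, fatty acids and minerals (Na, Ca, P, Mg, K, Fe, Mn, Zn, Cu). Treatments were postemergence insecticide, fungicide, PGRs and safeners. Visual injury scored 0–100% (phytotoxicity, chlorosis, stunting).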

[3] = system: basil 'Genovese'; assay: Content analysis of basil: protein, minerals (Example 4, Tables 10-11); type: in vivo; settings: 28 DA-A
How it was run: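 Postemergence greenhouse applications of chlorpyrifos, chlorothalonil, mepiquat-chloride, paclobutrazol, napthalic anhydride or isoxadifen-ethyl. Injury rated visually for phytotoxicity, chlorosis and stunting on a 0–100% scale (0 = no response, 100 = plant death). Plants harvested ~4 weeks after treatment, pooled over replicates for nutrient content analysis.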

[4] = 7 DA-A, rates g ai/ha: chlropyrifos 1120, chlorothalonil 2630, paclobutrazol 3.23, mepiquat-chloride 12.3, Isoxadifen 8, Napthalic anhydride 264, + NIS 0.25 % v/v
[5] = 7 DA-A, rates g ai/ha: chlropyrifos 3370, chlorothalonil 7900, paclobutrazol 9.7, mepiquat-chloride 37, Isoxadifen 16, Napthalic anhydride 527, + NIS 0.25 % v/v
[6] = 14 DA-A, rates g ai/ha: chlropyrifos 1120, chlorothalonil 2630, paclobutrazol 3.23, mepiquat-chloride 12.3, Isoxadifen 8, Napthalic anhydride 264, + NIS 0.25 % v/v
[7] = 14 DA-A, rates g ai/ha: chlropyrifos 3370, chlorothalonil 7900, paclobutrazol 9.7, mepiquat-chloride 37, Isoxadifen 16, Napthalic anhydride 527, + NIS 0.25 % v/v
[8] = 28 DA-A, rates g ai/ha: chlropyrifos 1120, chlorothalonil 2630, paclobutrazol 3.23, mepiquat-chloride 12.3, Isoxadifen 8, Napthalic anhydride 264, + NIS 0.25 % v/v
[9] = 28 DA-A, rates g ai/ha: chlropyrifos 3370, chlorothalonil 7900, paclobutrazol 9.7, mepiquat-chloride 37, Isoxadifen 16, Napthalic anhydride 527, + NIS 0.25 % v/v
[10] = rates g ai/ha: chlroprifos 3370, chlorothalonil 7900, paclobutrazol 9.7, mepiquat-chloride 37, Isoxadifen 16, Napthalic anhydride 527, + NIS 0.25 % v/v
[11] = rates g ai/ha: chlropyrifos 1120, chlorothalonil 2630, paclobutrazol 3.23, mepiquat-chloride 12.3, Isoxadifen 8, Napthalic anhydride 264, + NIS 0.25 % v/v

CC(C)(C)[C@@H](O)[C@@H](Cc1ccc(Cl)cc1)n1cncn1 (racemic) [paclobutrazol]
Alanine, Percent Increase over the Untreated Check (on a % dry matter basis) [1]: 4 % check
Aspartic acid, Percent Increase over the Untreated Check (on a % dry matter basis) [1]: 12 % check
Cysteine, Percent Increase over the Untreated Check (on a % dry matter basis) [1]: 6 % check
Glutamic acid, Percent Increase over the Untreated Check (on a % dry matter basis) [1]: 16 % check
Glycine, Percent Increase over the Untreated Check (on a % dry matter basis) [1]: 3 % check
Iso-leucine, Percent Increase over the Untreated Check (on a % dry matter basis) [1]: 6 % check
Leucine, Percent Increase over the Untreated Check (on a % dry matter basis) [1]: 5 % check
Lysine, Percent Increase over the Untreated Check (on a % dry matter basis) [1]: 14 % check
Methionine, Percent Increase over the Untreated Check (on a % dry matter basis) [1]: 2 % check
Proline, Percent Increase over the Untreated Check (on a % dry matter basis) [1]: 7 % check
Threonine, Percent Increase over the Untreated Check (on a % dry matter basis) [1]: 4 % check
Total Amino acids, Percent Increase over the Untreated Check (on a % dry matter basis) [1]: 9 % check
Total Protein, Percent Increase over the Untreated Check (on a % dry matter basis) [1]: 13 % check
Valine, Percent Increase over the Untreated Check (on a % dry matter basis) [1]: 6 % check
Phytotoxicity Chlorosis [2, 4]: 8%
Phytotoxicity General [2, 4]: 3%
Phytotoxicity Stunting [2, 4]: 3%
Phytotoxicity Chlorosis [2, 5]: 5%
Phytotoxicity General [2, 5]: 3%
Phytotoxicity Stunting [2, 5]: 2%
Phytotoxicity Chlorosis [2, 6]: 5%
Phytotoxicity General [2, 6]: 0%
Phytotoxicity Stunting [2, 6]: 7%
Phytotoxicity Chlorosis [2, 7]: 7%
Phytotoxicity General [2, 7]: 0%
Phytotoxicity Stunting [2, 7]: 5%
Phytotoxicity Chlorosis [2, 8]: 3%
Phytotoxicity General [2, 8]: 5%
Phytotoxicity Stunting [2, 8]: 8%
Phytotoxicity Chlorosis [2, 9]: 7%
Phytotoxicity General [2, 9]: 2%
Phytotoxicity Stunting [2, 9]: 2%
ADF, Percent Increase Over the Untreated Check (on a % dry matter basis) [3, 10]: −12 % check
Calcium, Percent Increase Over the Untreated Check (on a % dry matter basis) [3, 10]: −18 % check
Copper, Percent Increase Over the Untreated Check (on a % dry matter basis) [3, 10]: −25 % check
Iron, Percent Increase Over the Untreated Check (on a % dry matter basis) [3, 10]: 4 % check
Magnesium, Percent Increase Over the Untreated Check (on a % dry matter basis) [3, 10]: −9 % check
Manganese, Percent Increase Over the Untreated Check (on a % dry matter basis) [3, 10]: −12 % check
NDF, Percent Increase Over the Untreated Check (on a % dry matter basis) [3, 10]: −8 % check
Phosphorous, Percent Increase Over the Untreated Check (on a % dry matter basis) [3, 10]: 0 % check
Potassium, Percent Increase Over the Untreated Check (on a % dry matter basis) [3, 10]: −5 % check
Protein, Percent Increase Over the Untreated Check (on a % dry matter basis) [3, 10]: −9 % check
Sodium, Percent Increase Over the Untreated Check (on a % dry matter basis) [3, 10]: −17 % check
Soluble protein, Percent Increase Over the Untreated Check (on a % dry matter basis) [3, 10]: 12 % check
Zinc, Percent Increase Over the Untreated Check (on a % dry matter basis) [3, 10]: −8 % check
ADF, Percent Increase Over the Untreated Check (on a % dry matter basis) [3, 11]: 7 % check
Calcium, Percent Increase Over the Untreated Check (on a % dry matter basis) [3, 11]: −2 % check
Copper, Percent Increase Over the Untreated Check (on a % dry matter basis) [3, 11]: 8 % check
Iron, Percent Increase Over the Untreated Check (on a % dry matter basis) [3, 11]: 63 % check
Magnesium, Percent Increase Over the Untreated Check (on a % dry matter basis) [3, 11]: −8 % check
Manganese, Percent Increase Over the Untreated Check (on a % dry matter basis) [3, 11]: 26 % check
NDF, Percent Increase Over the Untreated Check (on a % dry matter basis) [3, 11]: 7 % check
Phosphorous, Percent Increase Over the Untreated Check (on a % dry matter basis) [3, 11]: 2 % check
Potassium, Percent Increase Over the Untreated Check (on a % dry matter basis) [3, 11]: −1 % check
Protein, Percent Increase Over the Untreated Check (on a % dry matter basis) [3, 11]: 6 % check
Sodium, Percent Increase Over the Untreated Check (on a % dry matter basis) [3, 11]: −25 % check
Soluble protein, Percent Increase Over the Untreated Check (on a % dry matter basis) [3, 11]: 50 % check
Zinc, Percent Increase Over the Untreated Check (on a % dry matter basis) [3, 11]: 28 % check

— US20110053773A1, “METHODS OF IMPROVING NUTRITIONAL VALUE OF PLANTS” (UNIVERSITY OF TENNESSEE RESEARCH FOUNDATION, priority 2009, published 2011)
